This passage reports EC50 results from BindingDB's records for doi:10.7270/Q24M92ZV (Nmmlsc, 2009).

This test deals with Ras-related C3 botulinum toxin substrate 1 (Mus musculus, UniProt P63001). Nature of the test: activated mutant Rac1 GTP binding inhibitors, SAR follow-up, biochemical, additional analogs, multiplex bead flow cytometry (AID 2039). In general terms: A flow cytometer gives signals particle by particle.
With `O=C1Nc2c(Cl)cccc2C1=C1Nc2ccccc2C1=O`, the EC50 (in general, the concentration that produces a half-maximal response) came out at 30 µM.
As for `O=C1Nc2c(Br)cccc2C1=C1Nc2ccccc2C1=O`, the concentration for a half-maximal effect (EC50) was determined as 27.6 µM.
Take `O=C1Nc2c(F)cccc2C1=C1Nc2ccccc2C1=O`: the EC50 was 30 µM.
With `O=C1NC(=O)/C(=C2/C(=O)Nc3ccccc32)N1`, a half-maximal effect (EC50) was put at 11.6 µM.
Consider `O=C1Nc2ccc(Br)cc2C1=C1Nc2ccccc2C1=O`, for which the concentration giving a half-maximal response (EC50) turned out to be 12.2 µM.
For `O=C1Nc2ccccc2/C1=C1/Nc2ccccc2C1=O` [2-[(3Z)-2-oxo-2,3-dihydro-1H-indol-3-ylidene]-2,3-dihydro-1H-indol-3-one], the EC50 came out at 30 µM. This EC50 lies about 2.5-fold higher than the previous one.
`O=C1N=c2ccccc2=C1c1[nH]c2ccccc2c1NO` [3-[3-(hydroxyamino)-1H-indol-2-yl]-2-indolone] came in with an EC50 of 30 µM.
As to `O=C1N=c2ccc(Br)cc2=C1c1[nH]c2ccccc2c1NO` [5-bromanyl-3-[3-(oxidanylamino)-1H-indol-2-yl]indol-2-one], the midpoint of the response, the EC50, lay at 32.7 µM. The EC50 values of the last two molecules are within 1.5-fold of each other.
Regarding `O=C1N=c2c(Br)cccc2=C1c1[nH]c2ccccc2c1NO` [7-bromanyl-3-[3-(oxidanylamino)-1H-indol-2-yl]indol-2-one], the EC50 was 30 µM.
The molecule `O=C1N=c2c(Cl)cccc2=C1c1[nH]c2ccccc2c1NO` [7-chloro-3-[3-(hydroxyamino)-1H-indol-2-yl]-2-indolone] displayed an EC50 of 30 µM.
The value for `O=C1N=c2c(F)cccc2=C1c1[nH]c2ccccc2c1NO` [7-fluoro-3-[3-(hydroxyamino)-1H-indol-2-yl]-2-indolone] was 31.6 µM; that for `O=C1NC(=S)N/C1=C1\C(=O)Nc2ccccc21` [(3Z)-3-(5-oxo-2-sulfanylideneimidazolidin-4-ylidene)-1H-indol-2-one] was 7 µM.
